Results from patent US6573275B1, “Bicyclic amines” (Syngenta Limited, priority 1995, dated 2003).

System: peach aphid (Myzus persicae)
Experiment: Insecticidal test against peach aphid, infested Chinese cabbage leaves sprayed
Assay type: in vivo
Conditions: peach aphid (Myzus persicae) on Chinese cabbage leaves, sprayed with 500 ppm composition unless otherwise stated, mortality assessed after 3 days
Summary of the method: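 Aphid-infested Chinese cabbage leaves were sprayed with compound at 500 ppm unless otherwise stated, formulated in acetone/ethanol diluted with water containing 0.05% Synperonic NP8. Mortality was assessed after 3 days.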

Row | SMILES | Score (grading of mortality)
1 | N#CC1(c2cncc(Cl)c2)CC2CCC(C1)N2Cc1ccc(F)cc1 (stereo not drawn) [Compound 254] | A (A indicates 80-100% mortality)
2 | N#CC1(c2cncc(Cl)c2)CC2CCC(C1)N2Cc1cccc(C(F)(F)F)c1 (stereo not drawn) [Compound 255] | A (A indicates 80-100% mortality)
3 | N#CC1(c2cncc(Cl)c2)CC2CCC(C1)N2Cc1ccc(C(F)(F)F)cc1 (stereo not drawn) [Compound 256] | A (A indicates 80-100% mortality)
4 | N#CC1(c2cncc(Cl)c2)CC2CCC(C1)N2Cc1cccc(Cl)c1F (stereo not drawn) [Compound 257] | A (A indicates 80-100% mortality)
5 | N#CC1(c2cncc(Cl)c2)CC2CCC(C1)N2Cc1c(F)ccc(F)c1Cl (stereo not drawn) [Compound 258] | A (A indicates 80-100% mortality)
6 | N#CC1(c2cncc(Cl)c2)CC2CCC(C1)N2Cc1ccccc1Cl (stereo not drawn) [Compound 259] | A (A indicates 80-100% mortality)
7 | N#CC1(c2cncc(Cl)c2)CC2CCC(C1)N2Cc1c(Cl)cccc1Cl (stereo not drawn) [Compound 260] | A (A indicates 80-100% mortality)
8 | N#CC1(c2cncc(Cl)c2)CC2CCC(C1)N2Cc1cccc(Cl)c1 (stereo not drawn) [Compound 261] | A (A indicates 80-100% mortality)
9 | N#CC1(c2cncc(Cl)c2)CC2CCC(C1)N2Cc1ccc(F)cc1I (stereo not drawn) [Compound 262] | A (A indicates 80-100% mortality)
10 | Cc1cccc(CN2C3CCC2CC(C#N)(c2cncc(Cl)c2)C3)c1F (stereo not drawn) [Compound 263] | A (A indicates 80-100% mortality)
11 | N#CC1(c2cncc(Cl)c2)CC2CCC(C1)N2Cc1ccccc1N1C(=O)CCC1=O (stereo not drawn) [Compound 264] | A (A indicates 80-100% mortality)
12 | N#CC1(c2cncc(Cl)c2)CC2CCC(C1)N2Cc1cc(C(F)(F)F)ccc1F (stereo not drawn) [Compound 265] | A (A indicates 80-100% mortality)
13 | N#CC1(c2cncc(Cl)c2)CC2CCC(C1)N2Cc1ccccc1-c1ccccc1 (stereo not drawn) [Compound 266] | A (A indicates 80-100% mortality)
14 | N#Cc1ccccc1CN1C2CCC1CC(C#N)(c1cncc(Cl)c1)C2 (stereo not drawn) [Compound 267] | A (A indicates 80-100% mortality)
15 | N#CC1(c2cncc(Cl)c2)CC2CCC(C1)N2Cc1cccc(Oc2ccc(F)cc2)c1 (stereo not drawn) [Compound 269] | A (A indicates 80-100% mortality)
16 | N#Cc1ccc(CN2C3CCC2CC(C#N)(c2cncc(Cl)c2)C3)cc1 (stereo not drawn) [Compound 270] | A (A indicates 80-100% mortality)
17 | N#CC1(c2cncc(Cl)c2)CC2CCC(C1)N2Cc1ccc(F)c(F)c1F (stereo not drawn) [Compound 271] | A (A indicates 80-100% mortality)
18 | N#CC1(c2cncc(Cl)c2)CC2CCC(C1)N2Cc1ccccc1[N+](=O)[O-] (stereo not drawn) [Compound 272] | A (A indicates 80-100% mortality)
19 | N#CC1(c2cncc(Cl)c2)CC2CCC(C1)N2Cc1c(F)cccc1[N+](=O)[O-] (stereo not drawn) [Compound 273] | A (A indicates 80-100% mortality)
20 | N#CC1(c2cncc(Cl)c2)CC2CCC(C1)N2Cc1cccc([N+](=O)[O-])c1 (stereo not drawn) [Compound 274] | A (A indicates 80-100% mortality)
21 | N#CC1(c2cncc(Cl)c2)CC2CCC(C1)N2Cc1ccc([N+](=O)[O-])cc1 (stereo not drawn) [Compound 275] | A (A indicates 80-100% mortality)
22 | CC(C)CN1C2CCC1CC(C#N)(c1cncc(Cl)c1)C2 (stereo not drawn) [Compound 276] | A (A indicates 80-100% mortality)
23 | CCCCCCCCCCN1C2CCC1CC(C#N)(c1cncc(Cl)c1)C2 (stereo not drawn) [Compound 277] | A (A indicates 80-100% mortality)
24 | N#CC1(c2cncc(Cl)c2)CC2CCC(C1)N2CCOc1ccccc1 (stereo not drawn) [Compound 278] | A (A indicates 80-100% mortality)

Row | SMILES | Score (grading of mortality)
25 | CCOCCN1C2CCC1CC(C#N)(c1cncc(Cl)c1)C2 (stereo not drawn) [Compound 279] | A (A indicates 80-100% mortality)
26 | CC(C)CCN1C2CCC1CC(C#N)(c1cncc(Cl)c1)C2 (stereo not drawn) [Compound 280] | A (A indicates 80-100% mortality)
27 | COC(=O)CCCN1C2CCC1CC(C#N)(c1cncc(Cl)c1)C2 (stereo not drawn) [Compound 281] | A (A indicates 80-100% mortality)
28 | N#CC1(c2cncc(Cl)c2)CC2CCC(C1)N2CCCc1ccccc1 (stereo not drawn) [Compound 282] | A (A indicates 80-100% mortality)
29 | N#CC1(c2cncc(Cl)c2)CC2CCC(C1)N2CC1CCCCC1 (stereo not drawn) [Compound 283] | A (A indicates 80-100% mortality)
30 | N#CCCN1C2CCC1CC(C#N)(c1cncc(Cl)c1)C2 (stereo not drawn) [Compound 284, exo-3-(5-chloropyrid-3-yl)-endo-3-cyano-8-(2-cyanoethyl)-8-azabicyclo[3.2.1]octane] | A (A indicates 80-100% mortality)
31 | N#CCCCN1C2CCC1CC(C#N)(c1cncc(Cl)c1)C2 (stereo not drawn) [Compound 285] | A (A indicates 80-100% mortality)
32 | CC(O)CN1C2CCC1CC(C#N)(c1cncc(Cl)c1)C2 (stereo not drawn) [Compound 286] | A (A indicates 80-100% mortality)
33 | C=CC(=O)OCCN1C2CCC1CC(C#N)(c1cncc(Cl)c1)C2 (stereo not drawn) [Compound 287] | A (A indicates 80-100% mortality)
34 | COCCN1C2CCC1CC(C#N)(c1cncc(Cl)c1)C2 (stereo not drawn) [Compound 288] | A (A indicates 80-100% mortality)
35 | N#CC1(c2cncc(Cl)c2)CC2CCC(C1)N2CC1CCCCO1 (stereo not drawn) [Compound 289] | A (A indicates 80-100% mortality)
36 | CC(CO)CN1C2CCC1CC(C#N)(c1cncc(Cl)c1)C2 (stereo not drawn) [Compound 290] | A (A indicates 80-100% mortality)
37 | N#CC1(c2cncc(Cl)c2)CC2CCC(C1)N2CP(=O)(O)O (stereo not drawn) [Compound 292, exo-3-(5-chloropyrid-3-yl)-endo-3-cyano-8-phosphonomethyl-8-azabicyclo[3.2.1]octane] | A (A indicates 80-100% mortality)
38 | C[N+]1([O-])C2CCC1CC(C#N)(c1cncc(Cl)c1)C2 (stereo not drawn) [Compound 293] | A (A indicates 80-100% mortality)
39 | CC(C)(C)OC(=O)N1C2CCC1CC(C#N)(c1cncc(Cl)c1)C2 (stereo not drawn) [Compound 294] | A (A indicates 80-100% mortality)
40 | CON1C2CCC1CC(C#N)(c1cncc(Cl)c1)C2 (stereo not drawn) [Compound 296, exo-3-(5-chloropyrid-3-yl)-endo-3-cyano-8-methoxy-8-azabicyclo[3.2.1]octane] | A (A indicates 80-100% mortality)
41 | N#CC1(c2ccnc(Cl)n2)CC2CCC(C1)N2CC(F)(F)F (stereo not drawn) [Compound 297] | A (A indicates 80-100% mortality)
42 | C=COC(=O)N1C2CCC1CC(C#N)(c1cncc(Cl)n1)C2 (stereo not drawn) [Compound 298] | A (A indicates 80-100% mortality)
43 | N#CC1(c2cncc(Cl)n2)CC2CCC(C1)N2 (stereo not drawn) [Compound 299] | A (A indicates 80-100% mortality)
44 | N#CC1(c2cncc(Cl)n2)CC2CCC(C1)N2Cc1cccc(Cl)c1 (stereo not drawn) [Compound 300] | A (A indicates 80-100% mortality)
45 | N#CCN1C2CCC1CC(C#N)(c1cncc(Cl)n1)C2 (stereo not drawn) [Compound 301] | A (A indicates 80-100% mortality)
46 | CC(c1cccc(Cl)c1)N1C2CCC1CC(C#N)(c1cncc(Cl)c1)C2 (stereo not drawn) [Compound 302] | A (A indicates 80-100% mortality)
47 | CN1C2CCC1CC(C#N)(c1cncc(C#N)c1)C2 (stereo not drawn) [Compound 304] | A (A indicates 80-100% mortality)
48 | C=COC(=O)N1C2CCC1CC(C#N)(c1cncc(I)c1)C2 (stereo not drawn) [Compound 309, exo-3-(5-iodopyrid-3-yl)-endo-3-cyano-8-(vinyloxycarbonyl)-8-azabicyclo[3.2.1]octane] | A (A indicates 80-100% mortality)
